Results on 1 compound are retold here after patent EP1263420B1 (priority 2000, dated 2001).

For one experiment, the system named is TGase II. The experiment is described as follows: TGase II assay of rat lung tissue after inhaled 13-cis RA (experiment B). The format is in vivo. Conditions: for TGase II assay / TGase II assay DPM/µg protein: rat lung. How it is done: Male rats (n=23) (Sprague-Dawley from Charles River) were divided into six experimental groups and were given varying amounts of 13-cis RA through an inhalant apparatus once daily for different times each day for 14 days. The experimental groups were as follows (Table 1) :1.Vehicle control : rats (3) inhaled vehicle for 240 minutes; 2. Low dose 13-cis RA: rats (4) inhaled a solution containing 13-cis RA at a concentration of 62.2µg/liter (inhaled dose 115.0µg/kg body weight) in 5 minutes; 3. Low-Middle dose 13-cis RA : rats (4) inhaled a solution containing 13-cis RA at a concentration of 62.2µg/liter (inhaled dose 334.4µg/kg body weight) in 15 minutes; 4.Middle dose 13-cis RA: rats (4) inhaled a solution containing 13-cis RA at a concentration of 62.2µg/liter (inhaled dose 1012.3µg/kg body weight) in 45 minutes; 5. Middle-High dose 13-cis RA : rats (4) inhaled a solution containing 13-cis RA at a concentration of 62.2µg/liter (inhaled dose 2843.4µg/kg body weight) in 120 minutes; 6. High dose 13-cis RA : rats (4) inhaled a solution containing 13-cis RA at a concentration of 62.2µg/liter (inhaled dose 5935.6µg/kg body weight) in 240 minutes. […]
Enzyme assay mixtures were prepared by adding 80µl of SUBSTRATE mixture (322.8µl H2O, 120µl 0.5M NaBorate, 60µl 0.01M EDTA, 60µl 0.1M CaCl2, 6µl 1M DTT, 240µl dimethyl casein, 30µl Triton X-100, 1.2µl [^3H]-Putrescine, 120µl Putrescine) to 20µl sample, 20µl scraping buffer for blank control , 20 µl (18µl scraping buffer + 2µl TGase II) for positive control. Samples were mixed in 15ml tubes, the tubes were shaken before putting them into a 28°C water bath for 30 minutes. Reactions were slowed down in an ice bath. 80µl of the incubation mixture was adsorbed onto paper disks. These were immediately dropped into cold 10% TCA (0.1% Putrescine) and washed with agitation for 7 minutes, followed by 2 additional washes with 5% TCA (0.05% putrescine) for 5~7 minutes, and once more with cold (-20°C) 95% ethanol for 5 minutes. Paper disks were dried and placed into 5ml Aquasol, and counted in a Liquid Scintillation Counter. Protein concentration determination was conducted by the Bradford method.

The test system of the next experiment is RARγ. The experiment is described as follows: RAR induction in lung of A/J mice exposed to isotretinoin aerosols (Western blot). It counts as in vivo. Conditions: inhaled mid dose isotretinoin, urethane-treated A/J mice, relative to vehicle-exposed. How it is done:
(§1) Antibodies: Polyclonal antibodies to RARα, β and γ (Santa Cruz Biotechnology Inc., San Francisco, CA) were used with a BM Chemiluminescence Western Blotting Kit (Mouse/Rabbit) (Boehringer Mannheim Corporation, Indianapolis).
(§2) Experimental Design: Five lungs each from the urethane-treated vehicle, low dose, and mid dose animals were snap frozen in liquid nitrogen and stored at -70°C for determination of RARs α, β and γ by Western Blot Analysis. In addition, five lungs each from urethane-injected unexposed mice, and untreated control mice were designated for Westerns. The lungs were homogenized and the RARs were determined by standard Western Blotting (21, 22). Due to deaths early in the high dose experiment, no lungs were available for Western Blot Analysis for the high dose exposures, i.e. all tissue was used for lesion quantitation purposes.
(§3) Samples: Lung tissue was collected, frozen on dry ice and kept at -70°C until used. A 500 mg portion was diced in small pieces and homogenized in 300 µl of cold PBS using a hand held homogenizer for 2-3 min. Samples were centrifuged at 500 rpm for 5 min or until the supernatant was clear. The pellet was suspended in 400 µl of cold Buffer A [2 µl 0.5 M EDTA, 10 µl 1 mM EGTA, 50 µl 100 mM PMSF, 10 µl 1M DTT, 10 ml (10 mM HEPES pH 7.9 + 10 mM KCl)], and left at ice temperature for 15 min. A 25 µl volume of 10% solution of NP-40 was added and the samples were mixed in a vortex vigorously for 10 sec. Samples were centrifuged at 14,000 rpm for 1 min at 4°C and the pellet was treated once more in this fashion. The supernatant was removed and 25 - 100 µl of Buffer C [4 µl 0.5 M EDTA, 20 µl 100 mM EGTA, 20 µl 0.1 M PMSF, 2 µl 1 M DTT, 2 ml (20 mM HEPES pH 7.9 + 0.4M NaCl)] was added. Pellets were resuspended by tapping gently on the bottom of the Eppendorf tube. Samples were rocked vigorously in a bucket of ice on an orbitor shaker for 30 min. Samples were centrifuged at 14,000 rpm for 5 min at 4°C. Supematants were kept frozen at -70°C until needed. Protein concentration determination was conducted by the Bradford method (23). […]

A further experiment deals with RARβ. The description is as above. It counts as in vivo. Conditions: inhaled mid dose isotretinoin, urethane-treated A/J mice, relative to vehicle-exposed. The procedure:
as §1, §2, §3

A further experiment concerns RARα. The experiment is described as above. It counts as in vivo. Conditions: inhaled mid dose isotretinoin, urethane-treated A/J mice, relative to vehicle-exposed. The procedure:
as §1, §2, §3

For a further experiment, the system named is lung metaplasia. Conditions: Oral doses of I mg/kg, smokers; cited from earlier work.
In experiment [1] the test system is urethane-induced lung cancer. Conditions: orally administered, over 300 mg/kg weekly; cited from earlier work.
[2] abbreviates: High: 240 minutes daily 14 Days, 1872µg/kg total deposited dose.
Where [3] appears, read: Low-Middle: 15 minutes daily 14 Days, 117µg/kg total deposited dose.
Where [4] appears, read: Middle-High: 120 minutes daily 14 Days, 936µg/kg total deposited dose.
[5] abbreviates: Middle: 45 minutes daily 14 Days, 351µg/kg total deposited dose.

Molecules are shown by their SMILES. Several values for one entry are separate records, joined by “and”; a condition that tells them apart may be missing. Identical values can stand only once.

In the case of `CC1=C(/C=C/C(C)=C/C=C/C(C)=C\C(=O)O)C(C)(C)CCC1` [13-cis RA, 13-cis-Retinoic Acid], the “stimulation of lung TGase II activity” value with TGase II (maximum, inhaled dose of 1012.3µg/kg, 45 minutes of inhalation, 14 days) came out at 2.9 Fold; with TGase II (with larger amounts of inhaled retinoid), 1.2 fold. Further, the “TGase II assay” value with TGase II (setting [2]) was 0.1025 +/- 0.004 picomoles/µg protein/30 min and 0.1025 ± 0.004 picomoles/µg protein/30 min; in the experiment with TGase II (setting [3]), 0.1150 +/- 0.006 picomoles/µg protein/30 min and 0.1150 ± 0.006 picomoles/µg protein/30 min; in the experiment on TGase II (Low: 5 minutes daily 14 Days, 39µg/kg total deposited dose, vehicle 0.0450), 0.0955 +/- 0.004 picomoles/µg protein/30 min and 0.0955 ± 0.004 picomoles/µg protein/30 min; with TGase II (setting [4]), 0.1020 +/- 0.005 picomoles/µg protein/30 min and 0.1020 ± 0.005 picomoles/µg protein/30 min; in the experiment on TGase II (setting [5]) it was 0.1330 +/- 0.009 picomoles/µg protein/30 min. The “TGase II assay DPM/µg protein” value in the experiment with TGase II (setting [2]) turned out to be 8053 DPM/µg protein; in the experiment with TGase II (setting [3]), 9035 DPM/µg protein; with TGase II (Low: 5 minutes daily 14 Days, 39µg/kg total deposited dose), 7503 DPM/µg protein; in the experiment with TGase II (setting [4]), 8014 DPM/µg protein; in the experiment on TGase II (setting [5]), 10449 DPM/µg protein. The “upregulated lung tissue RAR γ over solvent” value in the experiment with RARγ came out at 3.7 fold. Further, the “upregulated lung tissue RAR β over solvent” value in the experiment on RARβ amounted to 3.3 fold. For the same compound, the “upregulated lung tissue RAR α over solvent” value in the experiment on RARα was 3.9 fold. Further, the “reversal of lung metaplasia” value with lung metaplasia was “failed even to reverse lung metaplasia”. Further, the “prevention of urethane-induced lung cancer” value in experiment [1] is listed as “failed to prevent urethane-induced lung cancer”.
